Patent publication US12558428B2, “Heterobifunctional compounds and their use in treating disease” (Halda Therapeutics OpCo, Inc., priority 2024, dated 2026)
Where two headings read alike, the source gives them in different places.

Experiments:
Type in all cases: cell-based
[1] = system: T-Rex 293 cells lacking increased expression of estrogen receptor alpha protein; test: Cellular growth inhibition assay, T-Rex 293 cells, (−) doxycycline; conditions: T-REx-293, 72 h
Procedure, shortened: (§1)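 Viability read-out was CellTiter-Glo 2.0 luminescence after 72 h compound exposure, normalized to zero luminescence and fitted by four-parameter regression to give GI50. Cells were an ERα-inducible T-Rex 293 clone cultured with or without 3 ng/mL doxycycline in charcoal-stripped, phenol red-free medium.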

[2] = system: MCF7 cells (ATCC #HTB-22); test: Cellular growth inhibition assay, MCF7 cells purchased from ATCC; conditions: Homo sapiens, MCF7, 144 h
Protocol: Exemplary compounds were tested for the ability to inhibit the proliferation of MCF7 cells.
MCF7 cells (ATCC #HTB-22 or ECACC #86012803) were cultured in RPMI 1640 medium supplemented with 10% heat-inactivated fetal bovine serum, 1% pen-strep, and 0.2 U/ml insulin. Cells were seeded in 25 μL of RPMI 1640 medium supplemented with 10% heat-inactivated fetal bovine serum, 1% pen-strep, 0.2 U/ml insulin in poly-D-lysine treated, black clear-bottom 384-well plates at 225 cells/well for MCF7 cells purchased from ECACC or 1,500 cells/well for MCF7 cells purchased from ATCC. Following seeding, plates were spun at 300×g for 30 seconds and cultured at 37° C. with 5% CO2 in a humidified tissue culture incubator.
At 24 hours after seeding, compounds were titrated in 100% DMSO and diluted in RPMI 1640 medium supplemented with 10% heat-inactivate fetal bovine serum, 1% pen-strep, and 0.2 U/ml insulin. A 25 μL aliquot of the compound/media mixture was added to cells, bringing the total volume in each well to 50 μL. An equal volume of DMSO without compound was used as a negative control. After treatment, plates were spun at 300×g for 30 seconds, then cultured at 37° C. with 5% CO2 for six days in a humidified tissue culture incubator.
On Day 6 of treatment, cell viability was quantified with CellTiter-Glo 2.0 reagent (Promega). Plates were equilibrated to room temperature for 30 minutes, then 25 μL of CellTiter-Glo 2.0 reagent was added to cells, bringing the total volume in each well to 75 μL. After reagent was added, plates were mixed on a shaker for two minutes at 500 rpm and then incubated at room temperature for 10 minutes. Following incubation, plates were spun at 3,000×g for 30 seconds, sealed with an optical adhesive cover, and luminescence readings were measured with an EnVision Plate Reader.
Data was normalized to 0 luminescence for baseline. A four-parameter, non-linear regression curve fit was applied to dose-response data in GraphPad Prism data analysis software to determine the half maximal growth inhibitory concentration (GI50) for each compound.

[3] = system: T-Rex 293 cells having increased expression of estrogen receptor alpha protein; test: Cellular growth inhibition assay, T-Rex 293 cells, (+) doxycycline; conditions: T-REx-293, 72 h
Procedure, shortened: as §1

[4] = T-Rex 293 cells without doxycycline, 72 hours, CellTiter-Glo 2.0, read-out: (−) Dox TRex ERa (GI50)
[5] = Table 8-A, MCF7 cells purchased from ATCC, six days, CellTiter-Glo, read-out: GI50
[6] = T-Rex 293 cells with doxycycline-induced ERα expression, 72 hours, CellTiter-Glo 2.0, read-out: (+) Dox TRex ERa (GI50)
[7] = read-out: (−) Dox TRex ERa (GI50)
[8] = read-out: (+) Dox TRex ERa (GI50)

Structure (SMILES)	GI50 [1, 4] [nM]	GI50 [2, 5] [nM]	GI50 [3, 6] [nM]	GI50 [1, 7] [nM]	GI50 [2] [nM]	GI50 [3, 8] [nM]	GI50 ([1]; Table 7-A, T-Rex 293 cells without doxycycline (lacking increased ERα expression), 72 hours, CellTiter-Glo, read-out: (−) Dox GI50) [nM]	GI50 ([3]; Table 7-A, T-Rex 293 cells with doxycycline (increased ERα expression), 72 hours, CellTiter-Glo, read-out: (+) Dox GI50) [nM]
CCN(CCOCCOCCOCCOCCNC(=O)C[C@@H]1N=C(c2ccc(Cl)cc2)c2c(sc(C)c2C)-n2c(C)nnc21)CCOc1ccc(C(=O)c2c(-c3ccc(O)cc3)sc3cc(O)ccc23)cc1 [I-4, (S)-2-(4-(4-chlorophenyl)-2,3,9-trimethyl-6H-thieno[3,2-f][1,2,4]triazolo[4,3-a][1,4]diazepin-6-yl)-N-(3-ethyl-1-(4-(6-hydroxy-2-(4-hydroxyphenyl)benzo[b]thiophene-3-carbonyl)phenoxy)-6,9,12,15-tetraoxa-3-azaheptadecan-17-yl) acetamide]	500 to 2500	50 to 500	< 50	–	–	–	–	–
CCN(CCOCCOCCOCCOCCOCCOCCNC(=O)C[C@@H]1N=C(c2ccc(Cl)cc2)c2c(sc(C)c2C)-n2c(C)nnc21)CCOc1ccc(C(=O)c2c(-c3ccc(O)cc3)sc3cc(O)ccc23)cc1 [I-5, (S)-2-(4-(4-chlorophenyl)-2,3,9-trimethyl-6H-thieno[3,2-f][1,2,4]triazolo[4,3-a][1,4]diazepin-6-yl)-N-(3-ethyl-1-(4-(6-hydroxy-2-(4-hydroxyphenyl)benzo[b]thiophene-3-carbonyl)phenoxy)-6,9,12,15,18,21-hexaoxa-3-azatricosan-23-yl) acetamide]	500 to 2500	50 to 500	< 50	–	–	–	–	–
Cc1sc2c(c1C)C(c1ccc(N3CCN(c4ccc([C@@H]5c6ccc7n[nH]cc7c6C[C@@H](C)N5CC(F)(F)F)nc4)CC3)cc1)=N[C@@H](C)c1nnc(C)n1-2 [I-7, (S)-2,3,6,9-tetramethyl-4-(4-(4-(6-((6S,8R)-8-methyl-7-(2,2,2-trifluoroethyl)-6,7,8,9-tetrahydro-2H-pyrazolo[4,3-f]isoquinolin-6-yl)pyridin-3-yl)piperazin-1-yl)phenyl)-6H-thieno[3,2-f][1,2,4]triazolo[4,3-a][1,4]diazepine]	–	–	–	50 to 500	50 to 500	50 to 500	–	–
CCN(Cc1ccc(C2CN(CC3(O)CCN(c4ccc(C5=N[C@@H](C)c6nnc(C)n6-c6sc(C)c(C)c65)cc4)CC3)C2)cc1)c1cc(OC)ccc1C1CCc2cc(O)ccc2C1 (stereo partly drawn) [I-8, 4-((3-(4-((ethyl(2-(6-hydroxy-1,2,3,4-tetrahydronaphthalen-2-yl)-5-methoxyphenyl)amino)methyl)phenyl)azetidin-1-yl)methyl)-1-(4-((S)-2,3,6,9-tetramethyl-6H-thieno[3,2-f][1,2,4]triazolo[4,3-a][1,4]diazepin-4-yl)phenyl)piperidin-4-ol]	–	–	–	50 to 500	< 50	50 to 500	–	–
Cc1sc2c(c1C)C(c1ccc(OCCCCC3CCN(CCOc4ccc(C(=O)c5c(-c6ccc(O)cc6)sc6cc(O)ccc56)cc4)CC3)cc1)=N[C@@H](Cc1ncco1)c1nnc(C)n1-2 [I-9, (S)-(6-hydroxy-2-(4-hydroxyphenyl)benzo[b]thiophen-3-yl)(4-(2-(4-(4-(4-(2,3,9-trimethyl-6-(oxazol-2-ylmethyl)-6H-thieno[3,2-f][1,2,4]triazolo[4,3-a][1,4]diazepin-4-yl)phenoxy)butyl)piperidin-1-yl)ethoxy)phenyl)methanone]	50 to 500	< 50	< 50	–	–	–	–	–
Cc1sc2c(c1C)C(c1ccc(OC3CC4(CCN(CCOc5ccc(C(=O)c6c(-c7ccc(O)cc7)sc7cc(O)ccc67)cc5)CC4)C3)cc1)=N[C@@H](Cc1ncco1)c1nnc(C)n1-2 [I-10, (S)-(6-hydroxy-2-(4-hydroxyphenyl)benzo[b]thiophen-3-yl)(4-(2-(2-(4-(2,3,9-trimethyl-6-(oxazol-2-ylmethyl)-6H-thieno[3,2-f][1,2,4]triazolo[4,3-a][1,4]diazepin-4-yl)phenoxy)-7-azaspiro[3.5]nonan-7-yl)ethoxy)phenyl)methanone]	< 50	< 50	< 50	–	–	–	–	–
Cn1cc(-c2cc(C(C)(C)O)ccc2Oc2ccc(N3CC(CC4CCN(CCOc5ccc(C(=O)c6c(-c7ccc(O)cc7)sc7cc(O)ccc67)cc5)CC4)C3)cc2)c2cc[nH]c2c1=O [I-11, 4-(2-(4-(3-((1-(2-(4-(6-hydroxy-2-(4-hydroxyphenyl)benzo[b]thiophene-3-carbonyl)phenoxy)ethyl)piperidin-4-yl)methyl)azetidin-1-yl)phenoxy)-5-(2-hydroxypropan-2-yl)phenyl)-6-methyl-1,6-dihydro-7H-pyrrolo[2,3-c]pyridin-7-one]	< 50	< 50	< 50	–	–	–	–	–
Cc1sc2c(c1C)C(c1ccc(N3CCN(CC4CCN(c5ccc([C@@H]6c7ccc(O)cc7CC[C@@H]6c6ccccc6)cc5)CC4)CC3)cc1)=N[C@@H](Cc1ncco1)c1nnc(C)n1-2 [I-12, (5R,6S)-6-phenyl-5-(4-(4-((4-(4-((S)-2,3,9-trimethyl-6-(oxazol-2-ylmethyl)-6H-thieno[3,2-f][1,2,4]triazolo[4,3-a][1,4]diazepin-4-yl)phenyl)piperazin-1-yl)methyl)piperidin-1-yl)phenyl)-5,6,7,8-tetrahydronaphthalen-2-ol]	–	< 50	–	–	–	–	500 to 2500	< 50
Cc1sc2c(c1C)C(c1ccc(OCCC3CCN(CCOc4ccc(C(=O)c5c(-c6ccc(O)cc6)sc6cc(O)ccc56)cc4)CC3)cc1)=N[C@@H](Cc1ncco1)c1nnc(C)n1-2 [I-13, (S)-(6-hydroxy-2-(4-hydroxyphenyl)benzo[b]thiophen-3-yl)(4-(2-(4-(2-(4-(2,3,9-trimethyl-6-(oxazol-2-ylmethyl)-6H-thieno[3,2-f][1,2,4]triazolo[4,3-a][1,4]diazepin-4-yl)phenoxy)ethyl)piperidin-1-yl)ethoxy)phenyl)methanone]	50 to 500	< 50	< 50	–	–	–	–	–
Cc1sc2c(c1C)C(c1ccc(OCCCCC3CCN(c4ccc(C(=O)c5c(-c6ccc(Br)cc6)sc6cc(O)ccc56)cc4)CC3)cc1)=N[C@@H](Cc1ncco1)c1nnc(C)n1-2 [I-14, (S)-(2-(4-bromophenyl)-6-hydroxybenzo[b]thiophen-3-yl)(4-(4-(4-(4-(2,3,9-trimethyl-6-(oxazol-2-ylmethyl)-6H-thieno[3,2-f][1,2,4]triazolo[4,3-a][1,4]diazepin-4-yl)phenoxy)butyl)piperidin-1-yl)phenyl)methanone]	> 2500	500 to 2500	50 to 500	–	–	–	–	–
Cc1sc2c(c1C)C(c1ccc(OCCC3CCN(c4ccc(C(=O)c5c(-c6ccc(O)cc6)sc6cc(O)ccc56)cc4)CC3)cc1)=N[C@@H](Cc1ncco1)c1nnc(C)n1-2 [I-15, (S)-(6-hydroxy-2-(4-hydroxyphenyl)benzo[b]thiophen-3-yl)(4-(4-(2-(4-(2,3,9-trimethyl-6-(oxazol-2-ylmethyl)-6H-thieno[3,2-f][1,2,4]triazolo[4,3-a][1,4]diazepin-4-yl)phenoxy)ethyl)piperidin-1-yl)phenyl)methanone]	< 50	< 50	< 50	–	–	–	–	–
Cc1sc2c(c1C)C(c1ccc(Cl)cc1)=N[C@@H](CC(=O)NCCCCCCCOc1ccc(C(=O)c3c(-c4ccc(O)cc4)sc4cc(O)ccc34)cc1)c1nnc(C)n1-2 [I-16, (S)-2-(4-(4-chlorophenyl)-2,3,9-trimethyl-6H-thieno[3,2-f][1,2,4]triazolo[4,3-a][1,4]diazepin-6-yl)-N-(7-(4-(6-hydroxy-2-(4-hydroxyphenyl)benzo[b]thiophene-3-carbonyl)phenoxy)heptyl)acetamide]	> 2500	50 to 500	> 2500	–	–	–	–	–
Cc1sc2c(c1C)C(c1ccc(Cl)cc1)=N[C@@H](CC(=O)NCCCCOCCOc1ccc(C(=O)c3c(-c4ccc(O)cc4)sc4cc(O)ccc34)cc1)c1nnc(C)n1-2 [I-17, (S)-2-(4-(4-chlorophenyl)-2,3,9-trimethyl-6H-thieno[3,2-f][1,2,4]triazolo[4,3-a][1,4]diazepin-6-yl)-N-(4-(2-(4-(6-hydroxy-2-(4-hydroxyphenyl)benzo[b]thiophene-3-carbonyl)phenoxy)ethoxy)butyl)acetamide]	500 to 2500	50 to 500	500 to 2500	–	–	–	–	–
